The target in one data set is human 5-HT2A receptor (Homo sapiens (Human), UniProt P28223). In words: Radioligand binding ([3H]-ketanserin) to cloned receptors expressed in HEK-293 EBNA cells. The conditions noted are these: HEK293 EBNA cell membranes expressing human 5-HT2A. In outline: (§1)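 Membranes from transiently transfected HEK293 EBNA cells incubated 1 h at RT with ten compound concentrations (10 μM–0.1 nM). D2/D3: [3H]-spiperone ~0.7/0.5 nM, Tris–NaCl–Mg/Ca buffer pH 7.4; 5-HT2A: [3H]-ketanserin 1.1 nM, Tris–MgCl2–EGTA pH 7.4.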
Sequence of human 5-HT2A receptor (P28223 whole entry): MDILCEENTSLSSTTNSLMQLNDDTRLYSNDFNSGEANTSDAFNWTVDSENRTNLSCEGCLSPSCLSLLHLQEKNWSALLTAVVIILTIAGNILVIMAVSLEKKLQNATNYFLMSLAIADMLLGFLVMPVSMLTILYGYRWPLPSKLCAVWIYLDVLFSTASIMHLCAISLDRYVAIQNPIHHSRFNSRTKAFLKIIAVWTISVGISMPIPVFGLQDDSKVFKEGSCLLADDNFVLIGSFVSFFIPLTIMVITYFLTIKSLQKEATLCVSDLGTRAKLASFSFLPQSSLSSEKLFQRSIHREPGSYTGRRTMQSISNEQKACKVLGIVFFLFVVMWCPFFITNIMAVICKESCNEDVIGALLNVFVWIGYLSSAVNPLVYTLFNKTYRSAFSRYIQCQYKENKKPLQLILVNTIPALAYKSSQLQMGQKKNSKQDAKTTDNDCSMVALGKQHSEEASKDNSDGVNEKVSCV

Another data set deals with human D3 receptor (Homo sapiens (Human), UniProt P35462). Nature of the data set: Radioligand binding ([3H]-spiperone) to cloned receptors expressed in HEK-293 EBNA cells. The settings on record: HEK293 EBNA cell membranes expressing human D3. In outline:
as §1

In another data set the target is human D2 receptor (Homo sapiens (Human), UniProt P14416). The description is as above. The conditions noted are these: HEK293 EBNA cell membranes expressing human D2. The method in brief:
as §1

Sequence of human D3 receptor (P35462 whole entry): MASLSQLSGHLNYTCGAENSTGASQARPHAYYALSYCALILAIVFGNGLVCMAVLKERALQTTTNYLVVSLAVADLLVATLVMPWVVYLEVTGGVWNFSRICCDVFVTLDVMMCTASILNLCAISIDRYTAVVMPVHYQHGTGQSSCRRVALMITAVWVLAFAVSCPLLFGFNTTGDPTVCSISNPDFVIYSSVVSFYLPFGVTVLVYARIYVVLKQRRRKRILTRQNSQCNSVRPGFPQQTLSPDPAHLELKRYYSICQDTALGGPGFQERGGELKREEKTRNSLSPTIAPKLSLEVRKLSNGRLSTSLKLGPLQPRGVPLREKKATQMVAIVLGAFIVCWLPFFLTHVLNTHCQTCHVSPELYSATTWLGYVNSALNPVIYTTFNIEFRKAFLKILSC
Sequence of human D2 receptor (P14416 whole entry): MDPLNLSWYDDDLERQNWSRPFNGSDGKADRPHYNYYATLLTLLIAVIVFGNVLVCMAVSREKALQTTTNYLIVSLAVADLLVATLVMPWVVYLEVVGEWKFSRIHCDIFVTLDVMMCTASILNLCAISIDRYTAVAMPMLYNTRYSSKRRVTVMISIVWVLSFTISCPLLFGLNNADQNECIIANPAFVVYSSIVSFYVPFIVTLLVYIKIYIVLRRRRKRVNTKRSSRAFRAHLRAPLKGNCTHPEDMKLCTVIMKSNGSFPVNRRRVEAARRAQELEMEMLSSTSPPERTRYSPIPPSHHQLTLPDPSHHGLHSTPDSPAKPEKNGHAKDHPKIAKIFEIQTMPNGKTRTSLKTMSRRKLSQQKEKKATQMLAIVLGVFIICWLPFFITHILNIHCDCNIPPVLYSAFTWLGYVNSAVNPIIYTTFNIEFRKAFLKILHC

For the compound `O=C(N[C@H]1CC[C@H](CCN2CCC(c3cccc4c3CCO4)CC2)CC1)c1ccc(-c2cccnc2)cc1` [Example 92, trans-N-(4-{2-[4-(2,3-Dihydro-benzofuran-4-yl)-piperidin-1-yl]-ethyl}-cyclohexyl)-4-pyridin-3-yl-benzamide], the melting point was 224 °C. The Ki at human 5-HT2A receptor amounted to 25.4 nM. In addition, on human D3 receptor, the Ki turned out to be 5.35 nM. In addition, the Ki on human D2 receptor was found to be 99.8 nM.

On to `O=C(Cc1noc2ccccc12)N[C@H]1CC[C@H](CCN2CCC(c3cccc4c3CCO4)CC2)CC1` [Example 93, trans-2-Benzo[d] isoxazol-3-yl-N-(4-{2-[4-(2,3-dihydro-benzofuran-4-yl)-piperidin-1-yl]-ethyl}-cyclohexyl)-acetamide], for which the melting point was 214 °C. The Ki on human 5-HT2A receptor amounted to 30.7 nM. The Ki on human D3 receptor is 3.21 nM. Moreover, at human D2 receptor, the Ki worked out at 244 nM.

For `O=C(Cc1ccc2c(c1)OCO2)N[C@H]1CC[C@H](CCN2CCC(c3cccc4c3CCO4)CC2)CC1` [Example 94, trans-2-Benzo[1,3]dioxol-5-yl-N-(4-{2-[4-(2,3-dihydro-benzofuran-4-yl)-piperidin-1-yl]-ethyl}-cyclohexyl)-acetamide], the melting point is 209 °C. Moreover, the inhibition constant Ki on human 5-HT2A receptor is 45.3 nM. The Ki at human D3 receptor came out at 3.65 nM. Moreover, on human D2 receptor, the Ki turned out to be 721 nM.

As for `CS(=O)(=O)c1ccc(C(=O)N[C@H]2CC[C@H](CCN3CCC(c4cccc5c4CCO5)CC3)CC2)cc1` [Example 95, trans-N-(4-{2-[4-(2,3-Dihydro-benzofuran-4-yl)-piperidin-1-yl]-ethyl}-cyclohexyl)-4-methanesulfonyl-benzamide], the melting point was found to be 236 °C. The Ki at human 5-HT2A receptor came out at 14.7 nM. At human D3 receptor, the Ki came to 14 nM. For the same compound, the Ki on human D2 receptor turned out to be 162 nM.

The values are drawn from patent US8877778B2, “Benzofurane compounds” (Hoffmann-La Roche Inc., priority 2010, dated 2014).
